From PubChem BioAssay (NCI)
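Dose response: 5 concentrations. Exposure: 48 h. Format: 96-well plates. Endpoint: linear interpolation; highest concentration if not reached. Definition used: TGI = concentration required for complete inhibition of growth.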

How the values were obtained:
Assay in all cases: DTP human tumour cell line panel, 48 h
MOLT-4 leukemia = test system: MOLT-4 leukemia
DU-145 prostate = test system: DU-145 prostate
HL-60(TB) leukemia = test system: HL-60(TB) leukemia
NCI/ADR-RES ovarian = test system: NCI/ADR-RES ovarian
T-47D breast = test system: T-47D breast
KM12 colon = test system: KM12 colon
SK-MEL-2 melanoma = test system: SK-MEL-2 melanoma
MDA-N = test system: MDA-N
UACC-62 melanoma = test system: UACC-62 melanoma
SNB-19 CNS = test system: SNB-19 CNS
NCI-H522 lung = test system: NCI-H522 lung
NCI-H460 lung = test system: NCI-H460 lung
ACHN renal = test system: ACHN renal
OVCAR-5 ovarian = test system: OVCAR-5 ovarian
HT29 colon = test system: HT29 colon
SN12C renal = test system: SN12C renal
MALME-3M melanoma = test system: MALME-3M melanoma
SF-539 CNS = test system: SF-539 CNS
U251 CNS = test system: U251 CNS
MDA-MB-435 = test system: MDA-MB-435
PC-3 prostate = test system: PC-3 prostate
SNB-75 CNS = test system: SNB-75 CNS
786-0 renal = test system: 786-0 renal
IGROV1 ovarian = test system: IGROV1 ovarian
SK-OV-3 ovarian = test system: SK-OV-3 ovarian
MDA-MB-231 breast = test system: MDA-MB-231 breast
SK-MEL-5 melanoma = test system: SK-MEL-5 melanoma
HOP-92 NSCLC = test system: HOP-92 NSCLC
HS 578T breast = test system: HS 578T breast
HCT-116 colon = test system: HCT-116 colon
SF-268 CNS = test system: SF-268 CNS
HCT-15 colon = test system: HCT-15 colon
RXF 393 renal = test system: RXF 393 renal
OVCAR-8 ovarian = test system: OVCAR-8 ovarian
SF-295 CNS = test system: SF-295 CNS
OVCAR-4 ovarian = test system: OVCAR-4 ovarian
MCF7 breast = test system: MCF7 breast
RPMI-8226 leukemia = test system: RPMI-8226 leukemia
SR leukemia = test system: SR leukemia
CAKI-1 renal = test system: CAKI-1 renal
EKVX NSCLC = test system: EKVX NSCLC
UO-31 renal = test system: UO-31 renal
NCI-H23 lung = test system: NCI-H23 lung
M14 melanoma = test system: M14 melanoma
A498 renal = test system: A498 renal
CCRF-CEM leukemia = test system: CCRF-CEM leukemia
UACC-257 melanoma = test system: UACC-257 melanoma
TK-10 renal = test system: TK-10 renal
SK-MEL-28 melanoma = test system: SK-MEL-28 melanoma
A549 NSCLC = test system: A549 NSCLC
COLO 205 colon = test system: COLO 205 colon
SW-620 colon = test system: SW-620 colon
HOP-62 NSCLC = test system: HOP-62 NSCLC
K-562 leukemia = test system: K-562 leukemia
HCC-2998 colon = test system: HCC-2998 colon
NCI-H226 lung = test system: NCI-H226 lung

`C=CCOC(=O)N1c2ccc(O)cc2[C@@]23O[C@@]24[C@@H]1C#C/C=C\C#C[C@]3(O)C(OC)(OC)C[C@@H]4C` was tested, and the TGI (MOLT-4 leukemia) was greater than 100 µM, the TGI (DU-145 prostate) was greater than 100 µM and the TGI (HL-60(TB) leukemia) was 72 µM. The TGI (NCI/ADR-RES ovarian) was greater than 100 µM, the TGI (T-47D breast) was greater than 100 µM and the TGI (KM12 colon) was 69.7 µM. The TGI (SK-MEL-2 melanoma) was 58.3 µM, the TGI (MDA-N) was 77.5 µM and the TGI (UACC-62 melanoma) was greater than 100 µM. The TGI (SNB-19 CNS) was greater than 100 µM, the TGI (NCI-H522 lung) was 74.6 µM and the TGI (NCI-H460 lung) was 83.3 µM. The TGI (ACHN renal) was 72.3 µM, the TGI (OVCAR-5 ovarian) was greater than 100 µM and the TGI (HT29 colon) was 49.8 µM. It also gave a TGI (SN12C renal) of 61.6 µM, a TGI (MALME-3M melanoma) of 82 µM and a TGI (SF-539 CNS) of 40.6 µM. The TGI (U251 CNS) was greater than 100 µM, the TGI (MDA-MB-435) was 53.7 µM and the TGI (PC-3 prostate) was 77.6 µM. For the same compound, the TGI (SNB-75 CNS) was 45.9 µM, the TGI (786-0 renal) was 78.3 µM and the TGI (IGROV1 ovarian) was 80.8 µM. It also gave a TGI (SK-OV-3 ovarian) greater than 100 µM, a TGI (MDA-MB-231 breast) of 52.8 µM and a TGI (SK-MEL-5 melanoma) of 27.4 µM. For the same compound, the TGI (HOP-92 NSCLC) was 77.9 µM, the TGI (HS 578T breast) was 90.9 µM and the TGI (HCT-116 colon) was greater than 100 µM. The TGI (SF-268 CNS) was greater than 100 µM, the TGI (HCT-15 colon) was greater than 100 µM and the TGI (RXF 393 renal) was greater than 100 µM. For the same compound, the TGI (OVCAR-8 ovarian) was 85.5 µM, the TGI (SF-295 CNS) was greater than 100 µM and the TGI (OVCAR-4 ovarian) was 47.2 µM. The TGI (MCF7 breast) was 98.2 µM, the TGI (RPMI-8226 leukemia) was 91.5 µM and the TGI (SR leukemia) was 62.2 µM. The TGI (CAKI-1 renal) was greater than 100 µM, the TGI (EKVX NSCLC) was greater than 100 µM and the TGI (UO-31 renal) was greater than 100 µM. For the same compound, the TGI (NCI-H23 lung) was 93 µM, the TGI (M14 melanoma) was 79.9 µM and the TGI (A498 renal) was 67.6 µM. For the same compound, the TGI (CCRF-CEM leukemia) was 76.8 µM, the TGI (UACC-257 melanoma) was 44.1 µM and the TGI (TK-10 renal) was greater than 100 µM. It also gave a TGI (SK-MEL-28 melanoma) greater than 100 µM, a TGI (A549 NSCLC) greater than 100 µM and a TGI (COLO 205 colon) of 33.1 µM. The TGI (SW-620 colon) was greater than 100 µM, the TGI (HOP-62 NSCLC) was 85.9 µM and the TGI (K-562 leukemia) was greater than 100 µM. For the same compound, the TGI (HCC-2998 colon) was greater than 100 µM and the TGI (NCI-H226 lung) was 74.3 µM.
